Assay results taken from US20230150951A1, “2,5- OR 2,6-DISUBSTITUTED HYDROQUINONE DERIVATIVES WITH AT LEAST ONE CARBOXY, SULFO OR AMIDO GROUP USEFUL AS MEDICAMENTS” (OM PHARMA SA, priority 2020, published 2023).
“Also recorded” adds a separate entry of the source.

Tested on: acute pancreatitis murine model
Experiment: Caerulein-induced acute pancreatitis murine model
Format: in vivo, Balb/c mice
Set-up: Serum IL33 level / Serum TGF-B level: unit not given here
Details: for Acinar cell necrosis (group mean score) / Haemorrhage (group mean score) / Interstitial oedema (group mean score) / Mean terminal BW (% of initial) / Mean terminal pancreas weight / Pancreas histopathology observations (H&E) / Schmidt Score (H&E) / Pancreas IL33 level / Pancreas MPO activity / Pancreas TGF-B level / Serum IL33 level / Serum TGF-B level / Serum amylase level / Serum lipase level / Leukocyte infiltration (group mean score): 1st experiment, 15 mg/kg IV, Ib-010a and IVc-059a 150 mg/kg PO, Pirfenidone 40 mg/kg IV; for Acinar cell necrosis (group mean score) / Haemorrhage (group mean score) / Interstitial oedema (group mean score) / Mean terminal BW (% of initial) / Mean terminal pancreas weight / Pancreas histopathology observations (H&E) / Schmidt Score (H&E) / Leukocyte infiltration (group mean score): caerulein induced; for Schmidt Score (H&E): induced + vehicle = 10, non-induced = 0; for Pancreas IL33 level / Pancreas MPO activity / Pancreas TGF-B level: terminal pancreatic tissue; for Serum IL33 level / Serum TGF-B level / Serum amylase level / Serum lipase level: terminal serum; for TGF-B levels in pancreas / pancreatic tissue levels of IL33 / Global Schmidt score: first experiment; for pancreatic tissue levels of IL33: compared to the induced group; for Global Schmidt score: vs caerulein control animals; for Schmidt Score / Lipase activity in serum / MPO activity in pancreatic tissue / Amylase / IL-33 / Lipase / MPO / TGF-B / Trichome staining (Fibrosis % area): second experiment; for Lipase activity in serum: pirfenidone 100 mg/kg, compounds 15 mg/k, vs vehicle treated animals; for MPO activity in pancreatic tissue: vs induced vehicle treated controls
Experimental: Therapeutic efficacy of the compounds according to the present invention was assessed on an acute pancreatitis murine model. Tissue samples were obtained to allow post in-life analysis of pancreatitis parameters. Plasma samples were also obtained to assess animal exposure levels after administration of the compounds.
Animals: A total of 70 female Balb/c mice aged 8-10 weeks weighing approximately 20-25 g were used for the study (Charles River). After 7 days acclimatization, they were allocated into the different groups. […] Cages, bedding, and water were sanitized before use. Animals were provided with Corn-o-cobs enrichment bedding to provide environment enrichment and nesting material. […] The animal holding room were maintained as follows—room temperature at 20-24° C., humidity at 30-70% and a 12 h light/dark cycle used. Although animals used in this study were immuno-competent, preparation of dosing solutions and dosing/weighing of animals were carried out in a sterile biosafety cabinet.
Final formulation was in 5% DMSO, 10% Solutol, 10% PEG400, 75% 0.9% Saline and pH adjusted to 7 with 0.5M NaOH solution.
Final formulation is in 5% DMSO, 10% Solutol, 10% PEG400, 75% 0.9% Saline and pH adjusted to 7 with 0.5M NaOH solution. For per os (PO) dosing IVc-059a is formulated in water. Drug solutions were formulated on the day of dosing.
The purposes of this study were to assess efficacy compounds in an acute pancreatitis model (14 days), generate tissue samples to allow post in-life analysis of pancreatitis parameters and generate four plasma samples to assess animal exposure levels after first and last injection obtained from blood samples taken 1 h and 24 h after first and last injection.
Study Design: On the first study day animals were randomly be assigned to treatment groups, ensuring an equal spread of bodyweight. Mice (except negative control group) were treated with test compounds were given 5 minutes prior to caerulein dosing, followed by injection with caerulein at […] via intraperitoneal route (IP) daily during the study.
Treatment of test compounds were given 5 minutes prior to caerulein dosing.
Sampling and post in-life analyses: at times indicated above a whole blood sample (60 μl) were taken from the lateral tail vein into tubes coated with K2-EDTA. Plasma samples were prepared and stored frozen at −20° C. Plasma samples were sent to client bioanalysis provider Eurofins (FR) for quantification of compound.
Terminal Sampling: Prior to termination animals were weighed. Terminal study animals were culled via CO2 inhalation. A terminal blood sample was taken via cardiac puncture and plasma prepared. Lipase and Amylase activities were measured via ELISA using commercially available ELISA kits. Remaining plasma was stored for future cytokine analyses. Pancreas tissue was resected and weighed, and a section ([…]) snap frozen and analysed for quantification of compound in pancreas sample. A section ([…]) was processed for measurement of MPO activity, IL-33 and TGF-B levels via ELISA. The remainder was fixed in formalin and embedded in paraffin wax. H&E staining was carried out and section assessed using Schmidts standard scoring system, examining: edema, inflammatory infiltration, parenchymal necrosis, haemorrhage. Massons' Trichrome staining was carried out and area covered by fibrotic tissue quantified digitally using QuPath software. Terminal serum samples was used to assess blood chemistry using an IdeXX CHEM15 and LYTE4 clip (4 animals per treatment group).
Histopathology assessment of pancreatic injury based on 4 criteria: Oedema, Inflammatory infiltration, Parenchymal necrosis, Haemorrhage and scored as described below.
Schmidt score is the evaluation of the efficacy of the compounds based on the four histopathology criteria as described in the table below.

[1] = IV, 15 mg/kg, Pirfenidone 100 mg/kg

Mean terminal BW (% of initial)	SMILES	Acinar cell necrosis (group mean score)	Haemorrhage (group mean score)	Interstitial oedema (group mean score)	Mean terminal pancreas weight [g]	Pancreas histopathology observations (H&E)	Schmidt Score (H&E)	Pancreas IL33 level	Pancreas MPO activity	Pancreas TGF-B level	Serum IL33 level	Serum TGF-B level	Serum amylase level	Serum lipase level	TGF-B levels in pancreas (IV)	pancreatic tissue levels of IL33 (IV)	Lipase activity in serum	Amylase [1] [mU/mL]	IL-33 [1] [ng/mL]	Lipase [1] [mU/mL]	also measured
91.4 % of initial	O=C(O)c1cc(O)c(CN(Cc2cc(O)c(C(=O)O)cc2O)Cc2cc(O)c(C(=O)O)cc2O)cc1O [IIIc-061a, Tris(4-carboxy-2,5-dihydroxyphenylmethyl)amine]	0.5	1.0	1.0	0.086	Mild oedema observed; also recorded: Mild haemorrhage observed; also recorded: Mild acinar cell necrosis observed; also recorded: Mild leukocyte infiltration observed; also recorded: Normal islet morphology observed	3.5	177 ± 80	2.13	295 ± 146	33.72	4.65	38.38	9.79	decreased significantly	significant decrease	significantly lower than that in vehicle treated animals	–	–	–	Global Schmidt score: especially improved; Schmidt Score (H&E sections): lower scores than the positive control pirfenidone; MPO activity in pancreatic tissue: significantly lower than induced vehicle treated controls
–	O=C(O)c1cc(NC(=O)c2cc(O)cc(C(=O)Nc3ccc(O)c(C(=O)O)c3)c2O)ccc1O [IIc-007a, 5-(3-(3-carboxy-4-hydroxyphenylaminocarbonyl)-2,5-dihydroxybenzamido)-2-hydroxy benzoic acid]	–	–	–	–	–	–	–	–	–	–	–	–	–	–	–	–	45.325	340 ± 211	6.481	MPO [1]: 2.74 ± 0.76 U/mg; Schmidt Score [1]: 8.3 ± 1.6; TGF-B [1]: 500 ± 195 ng/mL; Trichome staining (Fibrosis % area) [1]: 1.821 ± 1.12 % area
93.3 % of initial	O=C(O)c1cc(O)cc(CS(=O)(=O)Cc2cc(O)cc(C(=O)O)c2O)c1O [IVc-059a, 3-((2,5-Dihydroxy-3-carboxyphenyl)methylsulfonylmethyl)-2,5-dihydroxybenzoic acid]	1.0	1.0	1.0	0.09	Mild oedema less observed; also recorded: Mild haemorrhage less observed; also recorded: Mild acinar cell necrosis observed; also recorded: Mild leukocyte infiltration observed; also recorded: Some pancreatic islet hyperplasia observed; also recorded: Disruption to the basophilic region	4.0	86 ± 23	2.88	231 ± 199	46.54	5.69	38.56	10.21	decreased significantly	significant decrease	significantly lower than that in vehicle treated animals	41.149	215 ± 84	4.324	Leukocyte infiltration (group mean score): 1.0; Global Schmidt score: especially improved; Schmidt Score (H&E sections): lower scores than the positive control pirfenidone; MPO [1]: 1.813 ± 0.405 U/mg; Schmidt Score [1]: 10.63 ± 2.33; TGF-B [1]: 403 ± 84 ng/mL; Trichome staining (Fibrosis % area) [1]: 1.048 ± 0.449 % area; MPO activity in pancreatic tissue: significantly lower than induced vehicle treated controls
90.3 % of initial	O=C(O)c1cc(O)c(C(=O)Nc2ccccc2C(=O)O)cc1O [Ia-001a, 4-(2-carboxyphenylaminocarbonyl)-2,5-dihydroxybenzoic acid]	0.9	1.1	1.3	0.083	Oedema observed throughout pancreas; also recorded: Haemorrhage observed; also recorded: Mild acinar cell less necrosis observed; also recorded: Leukocyte infiltration throughout; also recorded: Abnormal islet morphology observed; also recorded: Disruption to the basophilic region	6.3	330 ± 162	3.76	592 ± 358	39.52	8.69	34.07	6.72	–	significant decrease	–	–	–	–	Leukocyte infiltration (group mean score): 3.0
89.1 % of initial	O=C(O)c1cc(O)c(C(=O)Nc2ccccc2-c2nnn[nH]2)cc1O [Ia-001a-Tz, 4-(2-(1H-tetrazol-5-yl)phenyl-aminocarbonyl)-2,5-dihydroxybenzoic acid]	–	–	–	0.084	–	5.9	154 ± 49	2.68	507 ± 289	37.02	8.69	35.35	8.57	–	significant decrease	–	–	–	–	–
–	O=C(O)c1cc(NC(=O)c2cc(O)c(C(=O)O)cc2O)cc(C(=O)O)c1 [Ia-015a, 5-(4-carboxy-2,5-dihydroxybenzamido)isophthalic acid]	–	–	–	–	–	–	–	–	–	–	–	–	–	–	–	significantly lower than that in vehicle treated animals	51.669	398 ± 148	5.31	MPO [1]: 2.68 ± 0.6 U/mg; Schmidt Score [1]: 4.6 ± 0.8; TGF-B [1]: 547 ± 373 ng/mL; Trichome staining (Fibrosis % area) [1]: 1.704 ± 1.621 % area
91 % of initial	O=C(O)c1cc(NC(=O)c2cc(O)c(C(=O)O)cc2O)cc(NC(=O)c2cc(O)c(C(=O)O)cc2O)c1 [Ib-010a, 3,5-bis(2,5-dihydroxy-4-carboxybenzoylamino)benzoic acid]	1.0	0.8	1.5	0.091	Oedema observed throughout pancreas and within; also recorded: Mild haemorrhage observed; also recorded: Mild acinar cell necrosis observed; also recorded: Leukocyte infiltration observed; also recorded: Disruption to the basophilic region	6.3	157 ± 70	1.83	219 ± 140	35.36	6.87	37.46	9.06	decreased significantly	significant decrease	–	–	–	–	Leukocyte infiltration (group mean score): 3.0
